From patent publication US9480751B2, “Albumin binding probes and drug conjugates thereof” (priority 2011, dated 2016)

How the values were obtained:
CD1-mice = experiment: Blood glucose levels in CD1 mice after a single administration; assay type: in vivo
Protocol: (§1) Each point is the arithmetic mean of n=6 mice±SE.
as §1
Blood glucose levels were determined at varying time points following administration of insulin, exendin-4, and their derivatives in blood aliquots taken from the tail vein. Glucose analyzer (Beckman Instruments Fullerton, Calif.) was used. Groups consisted of six mice each. Data are presented as means±SE.

[1] = background statement; cited from earlier work
[2] = Hydrophobic chromatography (analytical HPLC, chromolite RP-18e) as estimate of overall lipophilicity; settings: chromolite R.P-18e column, mixture of 40 μg each, FIG. 3
Protocol: Analytical reverse phase-HPLC was performed using a pre-packed Chromolith™ Performance RP-18e column (4.6×100 mm, Merck, Darmstadt, Germany). The column was eluted with a binary gradient of 10-100% solution B over 10 min with a flow rate of 3 ml/min (solution A was 0.1% trifluoroacetic acid in H2O and solution B was 0.1% trifluoroacetic acid in acetonitrile:H2O; 3:1, v/v).
This approach of hydrophobic chromatography yields an estimate of the overall lipophilicity of peptide analogs (Shechter et al., 2010).

[3] = said to have; cited from earlier work
[4] = single subcutaneous 0.25 nmole/mouse, CD1 mice

Substance | t1/2 of glucose-lowering effect (CD1-mice; single subcutaneous 0.69 nmole/mouse, CD1 mice) [h] | t1/2 in plasma [1] [min] | Rt value, hydrophobic chromatography (estimate of overall lipophilicity) [2] [min] | Duration of action [3] | Blood glucose level 48 hrs after administration (last time point) (CD1-mice; intravenous 0.25 nmole/mouse) | t1/2 value of glucose-lowering (CD1-mice; single intravenous 0.25 nmole/mouse, CD1 mice) [h] | Glucose level reached after administration (CD1-mice; [4]) [mg/dL] | Period over which glucose remained at low level (CD1-mice; [4]) [h] | t1/2 value of glucose-lowering (CD1-mice; [4]) [h] | Glucose level reached after administration (CD1-mice; single subcutaneous 0.25 nmole/mouse, CD1 mice, listed as HO3S—(CH2)15—CO-exendin-4) | t1/2 of glucose reduction (CD1-mice; subcutaneous and intravenous administration, stated together) [h]
insulin: Human (Zn^2+-free) insulin | 2 ± 0.2 | 5 to 6 | 7.312 |  |  |  |  |  |  |  | 
N^εB29-tetradecanoyl des(B30) insulin [insulin-detemir] |  |  | 9.107 | up to 24 hours |  |  |  |  |  |  | 
exendin-4-CO—(CH2)15—SO3^− |  |  |  |  | still low | 28 ± 2 | 70 ± 5 | ~24 | 32 ± 2 | 70+5 mg/dl | 28 to 32
